Laboratory results: ChEMBL document CHEMBL1201862, “PubChem BioAssay data set” (2004)
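Test compounds were applied to cells in 96-well plates for 48 hours at 5 doses. GI50: concentration for 50% inhibition of growth.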 Activity calls are given as the source filed them. No stated cut-off is given here; in the data, active = GI50 up to about 1.1 µM and inactive = higher.

Experiments:
Test in all cases: DTP human tumour cell line panel, 48 h
[1] = system: OVCAR-5
[2] = system: PC-3
[3] = system: DU-145
[4] = system: BT-549
[5] = system: SK-MEL-5
[6] = system: SF-539
[7] = system: HL-60
[8] = system: NCI-H226
[9] = system: MOLT-4
[10] = system: SN12C
[11] = system: Malme-3M
[12] = system: KM12
[13] = system: TK-10
[14] = system: SNB-19
[15] = system: UACC-62
[16] = system: MDA-MB-231
[17] = system: UO-31
[18] = system: NCI-H23
[19] = system: MDA-N
[20] = system: 786-0
[21] = system: COLO 205
[22] = system: T47D
[23] = system: OVCAR-3
[24] = system: OVCAR-8
[25] = system: CCRF-CEM
[26] = system: RXF 393
[27] = system: SF-295
[28] = system: LOX IMVI
[29] = system: HCT-116
[30] = system: MCF7
[31] = system: Hs-578T
[32] = system: ACHN
[33] = system: SK-MEL-28
[34] = system: EKVX
[35] = system: IGROV-1
[36] = system: MDA-MB-435
[37] = system: A498
[38] = system: SW-620
[39] = system: HCT-15
[40] = system: U-251
[41] = system: K562
[42] = system: M14
[43] = system: CAKI-1
[44] = system: RPMI-8226
[45] = system: SK-MEL-2
[46] = system: NCI/ADR-RES
[47] = system: HT-29
[48] = system: UACC-257
[49] = system: SK-OV-3
[50] = system: SF-268
[51] = system: SNB-75
[52] = system: HCC 2998
[53] = system: OVCAR-4
[54] = system: A549
[55] = system: NCI-H522
[56] = system: NCI-H460
[57] = system: HOP-62
[58] = system: HOP-92

CC1CC/C(=C\c2ccc(F)cc2)C(=O)/C1=C/c1ccc(F)cc1 (configuration not stated)
GI50 [1]: 4.13 µM (inactive) | GI50 [2]: 5.2 µM (inactive) | GI50 [3]: 4.07 µM (inactive) | GI50 [4]: 3.58 µM (inactive) | GI50 [5]: 4.57 µM (inactive) | GI50 [6]: 3.68 µM (inactive) | GI50 [7]: 3.08 µM (inactive) | GI50 [8]: 7.03 µM (inactive) | GI50 [9]: 3.02 µM (inactive) | GI50 [10]: 3.22 µM (inactive) | GI50 [11]: 17.9 µM (inactive) | GI50 [12]: 2.97 µM (inactive) | GI50 [13]: 3.85 µM (inactive) | GI50 [14]: 10.1 µM (inactive) | GI50 [15]: 11.6 µM (inactive) | GI50 [16]: 2.66 µM (inactive) | GI50 [17]: 11.1 µM (inactive) | GI50 [18]: 6.44 µM (inactive) | GI50 [19]: 3.54 µM (inactive) | GI50 [20]: 2.9 µM (inactive) | GI50 [21]: 5.77 µM (inactive) | GI50 [22]: 5.46 µM (inactive) | GI50 [23]: 5.7 µM (inactive) | GI50 [24]: 2.7 µM (inactive) | GI50 [25]: 3.62 µM (inactive) | GI50 [26]: 3.17 µM (inactive) | GI50 [27]: 2.84 µM (inactive) | GI50 [28]: 2.77 µM (inactive) | GI50 [29]: 2.5 µM (inactive) | GI50 [30]: 4.21 µM (inactive) | GI50 [31]: 6.58 µM (inactive) | GI50 [32]: 4.15 µM (inactive) | GI50 [33]: 13.2 µM (inactive) | GI50 [34]: 3.67 µM (inactive) | GI50 [35]: 3.04 µM (inactive) | GI50 [36]: 4.69 µM (inactive) | GI50 [37]: 12.6 µM (inactive) | GI50 [38]: 6.04 µM (inactive) | GI50 [39]: 2.34 µM | GI50 [40]: 4.95 µM (inactive) | GI50 [41]: 3.76 µM (inactive) | GI50 [42]: 6.76 µM (inactive) | GI50 [43]: 3.85 µM (inactive) | GI50 [44]: 1.61 µM (inactive) | GI50 [45]: 4.83 µM (inactive) | GI50 [46]: 2 µM (inactive) | GI50 [47]: 2.92 µM (inactive) | GI50 [48]: 15.7 µM (inactive) | GI50 [49]: 17.4 µM (inactive) | GI50 [50]: 3.6 µM (inactive) | GI50 [51]: 2.04 µM (inactive)

CCCCNc1nc(O)c2[nH]cnc2n1
GI50 [1]: > 100 µM (inactive) | GI50 [52]: > 100 µM (inactive) | GI50 [2]: > 100 µM (inactive) | GI50 [3]: > 100 µM (inactive) | GI50 [4]: > 100 µM (inactive) | GI50 [5]: > 100 µM (inactive) | GI50 [6]: > 100 µM (inactive) | GI50 [8]: > 100 µM (inactive) | GI50 [9]: > 100 µM (inactive) | GI50 [53]: > 100 µM (inactive) | GI50 [10]: > 100 µM (inactive) | GI50 [11]: > 100 µM (inactive) | GI50 [12]: > 100 µM (inactive) | GI50 [13]: > 100 µM (inactive) | GI50 [54]: > 100 µM (inactive) | GI50 [14]: > 100 µM (inactive) | GI50 [15]: > 100 µM (inactive) | GI50 [55]: 51.8 µM (inactive) | GI50 [16]: > 100 µM (inactive) | GI50 [17]: > 100 µM (inactive) | GI50 [18]: > 100 µM (inactive) | GI50 [19]: > 100 µM (inactive) | GI50 [20]: > 100 µM (inactive) | GI50 [21]: > 100 µM (inactive) | GI50 [22]: > 100 µM (inactive) | GI50 [23]: > 100 µM (inactive) | GI50 [24]: > 100 µM (inactive) | GI50 [25]: > 100 µM (inactive) | GI50 [26]: > 100 µM (inactive) | GI50 [27]: > 100 µM (inactive) | GI50 [28]: > 100 µM (inactive) | GI50 [29]: > 100 µM (inactive) | GI50 [56]: > 100 µM (inactive) | GI50 [30]: > 100 µM (inactive) | GI50 [31]: > 100 µM (inactive) | GI50 [32]: > 100 µM (inactive) | GI50 [34]: > 100 µM (inactive) | GI50 [35]: > 100 µM (inactive) | GI50 [36]: > 100 µM (inactive) | GI50 [37]: > 100 µM (inactive) | GI50 [38]: > 100 µM (inactive) | GI50 [39]: > 100 µM | GI50 [40]: > 100 µM (inactive) | GI50 [41]: > 100 µM (inactive) | GI50 [57]: > 100 µM (inactive) | GI50 [42]: > 100 µM (inactive) | GI50 [43]: > 100 µM (inactive) | GI50 [44]: > 100 µM (inactive) | GI50 [45]: > 100 µM (inactive) | GI50 [46]: > 100 µM (inactive) | GI50 [47]: > 100 µM (inactive) | GI50 [48]: > 100 µM (inactive) | GI50 [49]: > 100 µM (inactive) | GI50 [50]: > 100 µM (inactive) | GI50 [51]: > 100 µM (inactive) | GI50 [58]: > 100 µM (inactive)
